Measurements as given in US9580444B2, “Polycyclic pyrazolinone derivative and herbicide comprising same as effective component thereof” (priority 2013, dated 2017).

What follows are compounds tested on Echinochloa oryzicola (barnyard grass) (assay: Test Example-1: herbicidal effect by a treatment before weeds are generated under submerged conditions). Details: 500 g a.i/ha, pre-emergence treatment, about 15 days after treatment, score 0-5.
Assay type: in vivo
Description: (§1) Using the formulation prepared according to the methods described above, the herbicidal effect of the bicyclic pyrazolinone derivative of the invention according to the methods shown in Test Examples below was examined. The herbicidal effect with respect to the test weeds or the phytotoxicity with respect to the test crops was examined according to the following criteria, and evaluated in six stage scores of 0 to 5.
(§2) A plastic cup of 30 cm^2 was filled with paddy soil, soil puddling was performed, seeds of Echinochloa oryzicola (barnyard grass), Cyperus difformis (smallflower umbrella plant), Monochoria vaginalis (monochoria), Scirpus juncoides (bulrush), and Eleocharis acicularis (needle spikerush), and Lindernia procumbens (common false pimpernel), Rotala indica (indian toothcup), Elatine triandra (waterwort) as other annual broad leaf weeds were seeded therein, and kept in a submerged state. A wettable powder or an emulsifiable concentrate of the compound of the present invention prepared according to Formulation Example was diluted on the weed seeding day, and a submersing treatment was performed so as to be a predetermined dosage. The herbicidal effect with respect to the test weeds about 15 days after the treatment was evaluated according to the evaluation criteria in six stages of 0 to 5 described above.
With O=c1c(-c2cc(Oc3cccnc3[N+](=O)[O-])c(Cl)cc2F)c(Cl)n2n1CCCC2 [Example 1-386] the “Herbicidal effect Echinochloa oryzicola” value was 5 (Herbicidal effect/phytotoxicity was 90% or greater). In the case of O=c1c(-c2cc(Oc3ccccc3O)c(Cl)cc2F)c(Cl)n2n1CCCC2 [Compound 3-1], the “Herbicidal effect Echinochloa oryzicola” value is reported as 5 (Herbicidal effect/phytotoxicity was 90% or greater). In the case of O=c1c(-c2cc(OC(F)F)c(Cl)cc2F)c(Cl)n2n1CCCC2 [Example 1-143], the “Herbicidal effect Echinochloa oryzicola” value is reported as 5 (Herbicidal effect/phytotoxicity was 90% or greater). For C#CC(C)Oc1ccccc1Oc1cc(-c2c(Cl)n3n(c2=O)CCCC3)c(F)cc1Cl (stereo not drawn) [Compound 3-31], the “Herbicidal effect Echinochloa oryzicola” value was 5 (Herbicidal effect/phytotoxicity was 90% or greater). With COC(=O)COc1ccccc1Oc1cc(-c2c(Cl)n3n(c2=O)CCCC3)c(F)cc1Cl [Compound 3-16] the “Herbicidal effect Echinochloa oryzicola” value was 5 (Herbicidal effect/phytotoxicity was 90% or greater). CCCOC(=CC(=O)OC)COc1cc(-c2c(Cl)n3n(c2=O)CCCC3)c(F)cc1Cl (mixture of isomers) [Compound 2-13] was tested, and the “Herbicidal effect Echinochloa oryzicola” value was 5 (Herbicidal effect/phytotoxicity was 90% or greater).

These compounds were tested on Eleocharis acicularis (needle spikerush) in the same assay as above. Details: 500 g a.i/ha, pre-emergence treatment, about 15 days after treatment, score 0-5.
Assay type: in vivo
Description: as §1, §2
O=c1c(-c2cc(Oc3cccnc3[N+](=O)[O-])c(Cl)cc2F)c(Cl)n2n1CCCC2 [Example 1-386] was tested, and the “Herbicidal effect Eleocharis acicularis” value was 5 (Herbicidal effect/phytotoxicity was 90% or greater). With O=c1c(-c2cc(Oc3ccccc3O)c(Cl)cc2F)c(Cl)n2n1CCCC2 [Compound 3-1] the “Herbicidal effect Eleocharis acicularis” value was 5 (Herbicidal effect/phytotoxicity was 90% or greater). For O=c1c(-c2cc(OC(F)F)c(Cl)cc2F)c(Cl)n2n1CCCC2 [Example 1-143], the “Herbicidal effect Eleocharis acicularis” value was 5 (Herbicidal effect/phytotoxicity was 90% or greater). In the case of C#CC(C)Oc1ccccc1Oc1cc(-c2c(Cl)n3n(c2=O)CCCC3)c(F)cc1Cl (stereo not drawn) [Compound 3-31], the “Herbicidal effect Eleocharis acicularis” value is reported as 5 (Herbicidal effect/phytotoxicity was 90% or greater). For COC(=O)COc1ccccc1Oc1cc(-c2c(Cl)n3n(c2=O)CCCC3)c(F)cc1Cl [Compound 3-16], the “Herbicidal effect Eleocharis acicularis” value was 5 (Herbicidal effect/phytotoxicity was 90% or greater). In the case of CCCOC(=CC(=O)OC)COc1cc(-c2c(Cl)n3n(c2=O)CCCC3)c(F)cc1Cl (mixture of isomers) [Compound 2-13], the “Herbicidal effect Eleocharis acicularis” value is reported as 5 (Herbicidal effect/phytotoxicity was 90% or greater).

Each compound was assayed on Scirpus juncoides (bulrush) in the same assay as above. Details: 500 g a.i/ha, pre-emergence treatment, about 15 days after treatment, score 0-5.
Assay type: in vivo
Description: as §1, §2
For O=c1c(-c2cc(Oc3cccnc3[N+](=O)[O-])c(Cl)cc2F)c(Cl)n2n1CCCC2 [Example 1-386], the “Herbicidal effect Scirpus juncoides” value was 5 (Herbicidal effect/phytotoxicity was 90% or greater). O=c1c(-c2cc(Oc3ccccc3O)c(Cl)cc2F)c(Cl)n2n1CCCC2 [Compound 3-1] was tested, and the “Herbicidal effect Scirpus juncoides” value was 5 (Herbicidal effect/phytotoxicity was 90% or greater). O=c1c(-c2cc(OC(F)F)c(Cl)cc2F)c(Cl)n2n1CCCC2 [Example 1-143] was tested, and the “Herbicidal effect Scirpus juncoides” value was 5 (Herbicidal effect/phytotoxicity was 90% or greater). In the case of C#CC(C)Oc1ccccc1Oc1cc(-c2c(Cl)n3n(c2=O)CCCC3)c(F)cc1Cl (stereo not drawn) [Compound 3-31], the “Herbicidal effect Scirpus juncoides” value is reported as 5 (Herbicidal effect/phytotoxicity was 90% or greater). With COC(=O)COc1ccccc1Oc1cc(-c2c(Cl)n3n(c2=O)CCCC3)c(F)cc1Cl [Compound 3-16] the “Herbicidal effect Scirpus juncoides” value was 5 (Herbicidal effect/phytotoxicity was 90% or greater). For CCCOC(=CC(=O)OC)COc1cc(-c2c(Cl)n3n(c2=O)CCCC3)c(F)cc1Cl (mixture of isomers) [Compound 2-13], the “Herbicidal effect Scirpus juncoides” value was 5 (Herbicidal effect/phytotoxicity was 90% or greater).

Each compound was assayed on Monochoria vaginalis (monochoria) in the same assay as above. Details: 500 g a.i/ha, pre-emergence treatment, about 15 days after treatment, score 0-5.
Assay type: in vivo
Description: as §1, §2
For O=c1c(-c2cc(Oc3cccnc3[N+](=O)[O-])c(Cl)cc2F)c(Cl)n2n1CCCC2 [Example 1-386], the “Herbicidal effect Monochoria vaginalis” value was 5 (Herbicidal effect/phytotoxicity was 90% or greater). O=c1c(-c2cc(Oc3ccccc3O)c(Cl)cc2F)c(Cl)n2n1CCCC2 [Compound 3-1] was tested, and the “Herbicidal effect Monochoria vaginalis” value was 5 (Herbicidal effect/phytotoxicity was 90% or greater). O=c1c(-c2cc(OC(F)F)c(Cl)cc2F)c(Cl)n2n1CCCC2 [Example 1-143] was tested, and the “Herbicidal effect Monochoria vaginalis” value was 5 (Herbicidal effect/phytotoxicity was 90% or greater). With C#CC(C)Oc1ccccc1Oc1cc(-c2c(Cl)n3n(c2=O)CCCC3)c(F)cc1Cl (stereo not drawn) [Compound 3-31] the “Herbicidal effect Monochoria vaginalis” value was 5 (Herbicidal effect/phytotoxicity was 90% or greater). For COC(=O)COc1ccccc1Oc1cc(-c2c(Cl)n3n(c2=O)CCCC3)c(F)cc1Cl [Compound 3-16], the “Herbicidal effect Monochoria vaginalis” value was 5 (Herbicidal effect/phytotoxicity was 90% or greater). CCCOC(=CC(=O)OC)COc1cc(-c2c(Cl)n3n(c2=O)CCCC3)c(F)cc1Cl (mixture of isomers) [Compound 2-13] was tested, and the “Herbicidal effect Monochoria vaginalis” value was 5 (Herbicidal effect/phytotoxicity was 90% or greater).

The compounds below were run on other annual broad leaf weeds (Lindernia procumbens, Rotala indica, Elatine triandra) in the same assay as above. Details: 500 g a.i/ha, pre-emergence treatment, about 15 days after treatment, score 0-5.
Assay type: in vivo
Description: as §1, §2
In the case of O=c1c(-c2cc(Oc3cccnc3[N+](=O)[O-])c(Cl)cc2F)c(Cl)n2n1CCCC2 [Example 1-386], the “Herbicidal effect Broadleaf weed” value is reported as 5 (Herbicidal effect/phytotoxicity was 90% or greater). In the case of O=c1c(-c2cc(Oc3ccccc3O)c(Cl)cc2F)c(Cl)n2n1CCCC2 [Compound 3-1], the “Herbicidal effect Broadleaf weed” value is reported as 5 (Herbicidal effect/phytotoxicity was 90% or greater). O=c1c(-c2cc(OC(F)F)c(Cl)cc2F)c(Cl)n2n1CCCC2 [Example 1-143] was tested, and the “Herbicidal effect Broadleaf weed” value was 5 (Herbicidal effect/phytotoxicity was 90% or greater). With C#CC(C)Oc1ccccc1Oc1cc(-c2c(Cl)n3n(c2=O)CCCC3)c(F)cc1Cl (stereo not drawn) [Compound 3-31] the “Herbicidal effect Broadleaf weed” value was 5 (Herbicidal effect/phytotoxicity was 90% or greater). In the case of COC(=O)COc1ccccc1Oc1cc(-c2c(Cl)n3n(c2=O)CCCC3)c(F)cc1Cl [Compound 3-16], the “Herbicidal effect Broadleaf weed” value is reported as 5 (Herbicidal effect/phytotoxicity was 90% or greater). CCCOC(=CC(=O)OC)COc1cc(-c2c(Cl)n3n(c2=O)CCCC3)c(F)cc1Cl (mixture of isomers) [Compound 2-13] was tested, and the “Herbicidal effect Broadleaf weed” value was 5 (Herbicidal effect/phytotoxicity was 90% or greater).

What follows are compounds tested on Cyperus difformis (smallflower umbrella plant) in the same assay as above. Details: 500 g a.i/ha, pre-emergence treatment, about 15 days after treatment, score 0-5.
Assay type: in vivo
Description: as §1, §2
In the case of O=c1c(-c2cc(Oc3cccnc3[N+](=O)[O-])c(Cl)cc2F)c(Cl)n2n1CCCC2 [Example 1-386], the “Herbicidal effect Cyperus difformis” value is reported as 5 (Herbicidal effect/phytotoxicity was 90% or greater). In the case of O=c1c(-c2cc(Oc3ccccc3O)c(Cl)cc2F)c(Cl)n2n1CCCC2 [Compound 3-1], the “Herbicidal effect Cyperus difformis” value is reported as 5 (Herbicidal effect/phytotoxicity was 90% or greater). O=c1c(-c2cc(OC(F)F)c(Cl)cc2F)c(Cl)n2n1CCCC2 [Example 1-143] was tested, and the “Herbicidal effect Cyperus difformis” value was 5 (Herbicidal effect/phytotoxicity was 90% or greater). For C#CC(C)Oc1ccccc1Oc1cc(-c2c(Cl)n3n(c2=O)CCCC3)c(F)cc1Cl (stereo not drawn) [Compound 3-31], the “Herbicidal effect Cyperus difformis” value was 5 (Herbicidal effect/phytotoxicity was 90% or greater). In the case of COC(=O)COc1ccccc1Oc1cc(-c2c(Cl)n3n(c2=O)CCCC3)c(F)cc1Cl [Compound 3-16], the “Herbicidal effect Cyperus difformis” value is reported as 5 (Herbicidal effect/phytotoxicity was 90% or greater). With CCCOC(=CC(=O)OC)COc1cc(-c2c(Cl)n3n(c2=O)CCCC3)c(F)cc1Cl (mixture of isomers) [Compound 2-13] the “Herbicidal effect Cyperus difformis” value was 5 (Herbicidal effect/phytotoxicity was 90% or greater).
